In ChEMBL document CHEMBL4765294, “Discovery and evaluation of new compounds targeting ribosomal protein S1 in antibiotic-resistant Mycobacterium Tuberculosis” (Eur J Med Chem, 2020):
Activity calls are given as the source filed them. The rule behind the calls is not given here.

target: not listed separately; assay: Binding affinity to Mycobacterium tuberculosis RpsA C-terminal domain (285 to 476 residues) assessed as dissociation constant by fluorescence quenching titration based analysis

**Q.** Which Kd does the source give for `Cc1cccc(CNC(=O)COc2cc(O)c3c(=O)cc(-c4ccccc4)oc3c2)c1` here?
**A.** 5.66 µM

**Q.** With `Cc1cccc(CNC(=O)CSc2nc3nc[nH]c3c(=O)[nH]2)c1` as the compound, how does the Kd read?
**A.** 2.67 µM

**Q.** For `Cc1ccc(CNC(=O)COc2cc(O)c3c(=O)cc(-c4ccccc4)oc3c2)cc1`, which Kd is on record?
**A.** 3.24 µM

**Q.** With `CC(Sc1nc(N)cc(N)n1)C(=O)O` (configuration not stated) as the compound, how does the Kd read?
**A.** 2.67 µM

**Q.** For `O=C(O)CSc1nc2nc[nH]c2c(=O)[nH]1`, which Kd is on record?
**A.** 6.35 µM

**Q.** For `O=C(O)c1cnccn1` [PYRAZINOIC ACID], which Kd is on record?
**A.** 9.65 µM

**Q.** For `CCOC(=O)CSc1nc2nc[nH]c2c(=O)[nH]1`, which Kd is on record?
**A.** 0.81 µM

**Q.** Which Kd does the source give for `Cc1ccc(CNC(=O)CSc2nc3nc[nH]c3c(=O)[nH]2)cc1` here?
**A.** 7.61 µM

test system: Mycobacterium tuberculosis; assay: Binding affinity to Mycobacterium tuberculosis 15N-labelled wild type RpsA (280 to 438 residues) by chemical shift perturbation based 15N-1H HSQC spectral analysis

**Q.** With `Cc1cccc(CNC(=O)COc2cc(O)c3c(=O)cc(-c4ccccc4)oc3c2)c1` as the compound, how does the Activity read?
**A.** Active

**Q.** With `Cc1cccc(CNC(=O)CSc2nc3nc[nH]c3c(=O)[nH]2)c1` as the compound, how does the Activity read?
**A.** Active

**Q.** With `Cc1ccc(CNC(=O)COc2cc(O)c3c(=O)cc(-c4ccccc4)oc3c2)cc1` as the compound, how does the Activity read?
**A.** Active

**Q.** Which Activity does the source give for `O=C(O)CSc1nc2nc[nH]c2c(=O)[nH]1` here?
**A.** Active

**Q.** Which Activity does the source give for `CCOC(=O)CSc1nc2nc[nH]c2c(=O)[nH]1` here?
**A.** Active

**Q.** Which Activity does the source give for `Cc1ccc(CNC(=O)CSc2nc3nc[nH]c3c(=O)[nH]2)cc1` here?
**A.** Active

test system: Mycobacterium tuberculosis; assay: Binding affinity to Mycobacterium tuberculosis RpsA C-terminal domain (285 to 476 residues) at 500 uM by STD based analysis

**Q.** Which Activity does the source give for `Cc1cccc(CNC(=O)COc2cc(O)c3c(=O)cc(-c4ccccc4)oc3c2)c1` here?
**A.** Active

**Q.** Which Activity does the source give for `Cc1cccc(CNC(=O)CSc2nc3nc[nH]c3c(=O)[nH]2)c1` here?
**A.** Active

**Q.** With `Cc1ccc(CNC(=O)COc2cc(O)c3c(=O)cc(-c4ccccc4)oc3c2)cc1` as the compound, how does the Activity read?
**A.** Active

**Q.** For `O=C(O)CSc1nc2nc[nH]c2c(=O)[nH]1`, which Activity is on record?
**A.** Active

**Q.** With `CCOC(=O)CSc1nc2nc[nH]c2c(=O)[nH]1` as the compound, how does the Activity read?
**A.** Active

**Q.** For `Cc1ccc(CNC(=O)CSc2nc3nc[nH]c3c(=O)[nH]2)cc1`, which Activity is on record?
**A.** Active

test system: Mycobacterium tuberculosis; assay: Binding affinity to Mycobacterium tuberculosis RpsA C-terminal domain (285 to 476 residues) assessed as quenching rate constant by fluorescence quenching titration based analysis

**Q.** With `Cc1cccc(CNC(=O)COc2cc(O)c3c(=O)cc(-c4ccccc4)oc3c2)c1` as the compound, how does the Kq read?
**A.** 1.94 10^12/M/s

**Q.** Which Kq does the source give for `Cc1cccc(CNC(=O)CSc2nc3nc[nH]c3c(=O)[nH]2)c1` here?
**A.** 3.75 10^12/M/s

**Q.** For `Cc1ccc(CNC(=O)COc2cc(O)c3c(=O)cc(-c4ccccc4)oc3c2)cc1`, which Kq is on record?
**A.** 6.45 10^12/M/s

**Q.** With `O=C(O)CSc1nc2nc[nH]c2c(=O)[nH]1` as the compound, how does the Kq read?
**A.** 1.79 10^12/M/s

**Q.** For `O=C(O)c1cnccn1` [PYRAZINOIC ACID], which Kq is on record?
**A.** 8.22 10^11/M/s

**Q.** For `CCOC(=O)CSc1nc2nc[nH]c2c(=O)[nH]1`, which Kq is on record?
**A.** 3.37 10^12/M/s

**Q.** Which Kq does the source give for `Cc1ccc(CNC(=O)CSc2nc3nc[nH]c3c(=O)[nH]2)cc1` here?
**A.** 4.09 10^12/M/s
